# According to patent US6559101B2, “N- (5, 7-dimethoxy [1, 2, 4] triazolo [1, 5-a] pyrimidin-2-yl) arylsulfonamide compounds and their use as herbicides” (Dow AgroSciences LLC, priority 2000, dated 2003):
# Columns and labels:
# Format in all cases: in vivo
# [1] = system: wild poinsettia (Euphorbia heterophylla); assay: Preemergence herbicidal activity; conditions: scored after 3 weeks, 0 no injury, 100 complete kill or no germination
# Experimental: (§1) The soil matrix was contained in plastic pots with a surface area of 161 square centimeters. When required to ensure good germination and healthy plants, a fungicide treatment and/or other chemical or physical treatment was applied. A weighed amount, determined by the highest rate to be tested, of each test compound was placed in a 20 mL glass vial and was dissolved in 8 mL of a 97:3 v/v (volume/volume) mixture of acetone and dimethyl sulfoxide to obtain concentrated stock solutions. […] The stock solutions obtained were diluted with a 99.9:0.1 mixture of water and Tween® 155 surfactant (ethoxylated sorbitan fatty acid ester) to obtain application solutions of known concentration. The solutions containing the highest concentration to be tested were prepared by diluting 4 mL aliquots of the stock solution with 8.5 mL of the mixture and lower concentrations were prepared by dilution of appropriate smaller portions of the stock solution. A 2.5 mL aliquot of each solution of known concentration was sprayed evenly onto the soil of each seeded pot using a Cornwall 5.0 mL glass syringe fitted with a TeeJet TN-3 hollow cone nozzle to obtain thorough coverage of the soil in each pot. Control pots were sprayed in the same manner with the aqueous mixture. A highest application rate of 4.48 kg/ha is achieved when 50 mg of test compound is employed. The treated pots and control pots were placed in a greenhouse with an approximately 15 hr photoperiod which was maintained at about 23-29° C. during the day and 22-28° C. during the night. Nutrients and water were added on a regular basis and supplemental lighting was provided with overhead metal halide 1000 Watt lamps as necessary. The water was added by top-irrigation. After 3 weeks the condition of the test plants that germinated and grew as compared with that of the untreated plants that germinated and grew was determined visually and scored on a scale of 0 to 100 percent where 0 corresponds to no injury and 100 corresponds to complete kill or no germination.
# [2] = system: pigweed (Amaranthus retroflexus); assay: Preemergence herbicidal activity; conditions: scored after 3 weeks, 0 no injury, 100 complete kill or no germination
# Experimental: as §1
# [3] = system: cocklebur (Xanthium strumarium); assay: Preemergence herbicidal activity; conditions: scored after 3 weeks, 0 no injury, 100 complete kill or no germination
# Experimental: as §1
# [4] = system: blackgrass (Alopecurus myosuroides); assay: Preemergence herbicidal activity; conditions: scored after 3 weeks, 0 no injury, 100 complete kill or no germination
# Experimental: as §1
# [5] = system: barnyardgrass (Echinochloa crus-galli); assay: Preemergence herbicidal activity; conditions: scored after 3 weeks, 0 no injury, 100 complete kill or no germination
# Experimental: as §1
# [6] = system: morningglory (Ipomoea hederacea); assay: Preemergence herbicidal activity; conditions: scored after 3 weeks, 0 no injury, 100 complete kill or no germination
# Experimental: as §1
# [7] = system: crabgrass (Digitaria sanguinalis); assay: Preemergence herbicidal activity; conditions: scored after 3 weeks, 0 no injury, 100 complete kill or no germination
# Experimental: as §1
# [8] = system: giant foxtail (Setaria faberi); assay: Preemergence herbicidal activity; conditions: scored after 3 weeks, 0 no injury, 100 complete kill or no germination
# Experimental: as §1
# [9] = system: Rox orange sorghum (Sorghum bicolor); assay: Preemergence herbicidal activity; conditions: scored after 3 weeks, 0 no injury, 100 complete kill or no germination
# Experimental: as §1
# [10] = system: velvetleaf (Abutilion theophrasti); assay: Preemergence herbicidal activity; conditions: scored after 3 weeks, 0 no injury, 100 complete kill or no germination
# Experimental: as §1
# [11] = system: lambsquarters (Chenopodium album); assay: Preemergence herbicidal activity; conditions: scored after 3 weeks, 0 no injury, 100 complete kill or no germination
# Experimental: as §1
# wild oats (Avena fatua) [12] = assay: Preemergence herbicidal activity; conditions: scored after 3 weeks, 0 no injury, 100 complete kill or no germination
# Experimental: as §1
# [13] = system: pigweed (Amaranthus retroflexus); assay: Postemergence herbicidal activity; conditions: scored after 2 weeks, 0 no injury, 100 complete kill
# Experimental: (§2) Seeds of the desired test plant species were planted in Grace-Sierra MetroMix® 306 planting mixture, which typically has a pH of 6.0 to 6.8 and an organic matter content of about 30 percent, in plastic pots with a surface area of 64 square centimeters. When required to ensure good germination and healthy plants, a fungicide treatment and/or other chemical or physical treatment was applied. The plants were grown for 7-21 days in a greenhouse with an approximately 15 hr photoperiod which was maintained at about 23-29° C. during the day and 22-28° C. during the night. Nutrients and water were added on a regular basis and supplemental lighting was provided with overhead metal halide 1000 Watt lamps as necessary. The plants were employed for testing when they reached the first or second true leaf stage. A weighed amount of each test compound, determined by the highest rate to be tested, was placed in a 20 mL glass vial and was dissolved in 4 mL of a 97:3 v/v (volume/volume) mixture of acetone and dimethyl sulfoxide to obtain concentrated stock solutions. […] The concentrated stock solutions obtained were diluted with an aqueous mixture containing acetone, water, iso-propyl alcohol, dimethyl sulfoxide, Atplus 411F crop oil concentrate, and Triton X-155 surfactant (methylenebisdiamyl phenoxy polyethoxy ethanol) in a 48.5:39:10:1.5:1.0:0.02 v/v ratio to obtain spray solutions of known concentration. The solutions containing the highest concentration to be tested were prepared by diluting 2 mL aliquots of the stock solution with 13 mL of the mixture and lower concentrations were prepared by dilution of appropriate smaller portions of the stock solution. Approximately 1.5 mL aliquots of each solution of known concentration were sprayed evenly onto each of the test plant pots using a Devilbiss atomizer driven by compressed air pressure of 2 to 4 psi (140 to 280 kiloPascals) to obtain thorough coverage of each plant. Control plants were sprayed in the same manner with the aqueous mixture. In this test an application rate of 1 ppm results in the application of approximately 1 g/ha. The treated plants and control plants were placed in a greenhouse as described above and watered by sub-irrigation to prevent wash-off of the test compounds. After 2 weeks the condition of the test plants as compared with that of the untreated plants was determined visually and scored on a scale of 0 to 100 percent where 0 corresponds to no injury and 100 corresponds to complete kill.
# [14] = system: cocklebur (Xanthium strumarium); assay: Postemergence herbicidal activity; conditions: scored after 2 weeks, 0 no injury, 100 complete kill
# Experimental: as §2
# [15] = system: morningglory (Ipomoea hederacea); assay: Postemergence herbicidal activity; conditions: scored after 2 weeks, 0 no injury, 100 complete kill
# Experimental: as §2
# [16] = system: wild buckwheat (Polygonum convolvulus); assay: Postemergence herbicidal activity; conditions: scored after 2 weeks, 0 no injury, 100 complete kill
# Experimental: as §2
# [17] = system: giant foxtail (Setaria faberi); assay: Postemergence herbicidal activity; conditions: scored after 2 weeks, 0 no injury, 100 complete kill
# Experimental: as §2
# [18] = system: Rox orange sorghum (Sorghum bicolor); assay: Postemergence herbicidal activity; conditions: scored after 2 weeks, 0 no injury, 100 complete kill
# Experimental: as §2
# [19] = system: chickweed (Stellaria media); assay: Postemergence herbicidal activity; conditions: scored after 2 weeks, 0 no injury, 100 complete kill
# Experimental: as §2
# [20] = system: velvetleaf (Abutilion theophrasti); assay: Postemergence herbicidal activity; conditions: scored after 2 weeks, 0 no injury, 100 complete kill
# Experimental: as §2
# [21] = system: lambsquarters (Chenopodium album); assay: Postemergence herbicidal activity; conditions: scored after 2 weeks, 0 no injury, 100 complete kill
# Experimental: as §2
# wild oats (Avena fatua) [22] = assay: Postemergence herbicidal activity; conditions: scored after 2 weeks, 0 no injury, 100 complete kill
# Experimental: as §2
# viola (Viola tricolor) = assay: Postemergence herbicidal activity; conditions: scored after 2 weeks, 0 no injury, 100 complete kill
# Experimental: as §2
# [23] = system: blackgrass (Alopecurus myosuroides); assay: Postemergence herbicidal activity; conditions: 31.3 ppm; scored after 2 weeks; 0 no injury, 100 complete kill
# Experimental: as §2
smiles,measurement,setting,value
CCc1ccc(OC)c(S(=O)(=O)Nc2nc3nc(OC)cc(OC)n3n2)c1 [Compound 9],Preemergence herbicidal activity EPHHL,[1]; 70 g/Ha,0%
same,Preemergence herbicidal activity AMARE,[2]; 70 g/Ha,40%
same,Preemergence herbicidal activity XANST,[3]; 70 g/Ha,0%
same,Preemergence herbicidal activity ALOMY,[4]; 70 g/Ha,0%
same,Preemergence herbicidal activity ECHCG,[5]; 70 g/Ha,0%
same,Preemergence herbicidal activity IPOHE,[6]; 70 g/Ha,30%
same,Preemergence herbicidal activity DIGSA,[7]; 70 g/Ha,0%
same,Preemergence herbicidal activity SETFA,[8]; 70 g/Ha,20%
same,Preemergence herbicidal activity SORBI,[9]; 70 g/Ha,0%
same,Preemergence herbicidal activity ABUTH,[10]; 70 g/Ha,20%
same,Preemergence herbicidal activity CHEAL,[11]; 70 g/Ha,30%
same,Preemergence herbicidal activity AVEFA,wild oats (Avena fatua) [12]; 70 g/Ha,0%
same,Postemergence herbicidal activity AMARE,[13]; 62.5 ppm,70%
same,Postemergence herbicidal activity XANST,[14]; 62.5 ppm,70%
same,Postemergence herbicidal activity IPOHE,[15]; 62.5 ppm,10%
same,Postemergence herbicidal activity POLCO,[16]; 62.5 ppm,50%
same,Postemergence herbicidal activity SETFA,[17]; 62.5 ppm,30%
same,Postemergence herbicidal activity SORBI,[18]; 62.5 ppm,30%
same,Postemergence herbicidal activity STEME,[19]; 62.5 ppm,50%
same,Postemergence herbicidal activity ABUTH,[20]; 62.5 ppm,30%
same,Postemergence herbicidal activity CHEAL,[21]; 62.5 ppm,80%
same,Postemergence herbicidal activity AVEFA,wild oats (Avena fatua) [22]; 62.5 ppm,20%
same,Postemergence herbicidal activity VIOTR,viola (Viola tricolor); 62.5 ppm,50%
COc1cc(OC)n2nc(NS(=O)(=O)c3cc(Cl)ccc3OCCF)nc2n1 [Compound 13],Preemergence herbicidal activity EPHHL,[1]; 35 g/Ha,50%
same,Preemergence herbicidal activity AMARE,[2]; 35 g/Ha,95%
same,Preemergence herbicidal activity XANST,[3]; 35 g/Ha,50%
same,Preemergence herbicidal activity ALOMY,[4]; 35 g/Ha,95%
same,Preemergence herbicidal activity ECHCG,[5]; 35 g/Ha,80%
same,Preemergence herbicidal activity IPOHE,[6]; 35 g/Ha,50%
same,Preemergence herbicidal activity DIGSA,[7]; 35 g/Ha,100%
same,Preemergence herbicidal activity SETFA,[8]; 35 g/Ha,95%
same,Preemergence herbicidal activity SORBI,[9]; 35 g/Ha,95%
same,Preemergence herbicidal activity ABUTH,[10]; 35 g/Ha,60%
same,Preemergence herbicidal activity CHEAL,[11]; 35 g/Ha,95%
same,Preemergence herbicidal activity AVEFA,wild oats (Avena fatua) [12]; 35 g/Ha,85%
same,Postemergence herbicidal activity AMARE,[13]; 31.3 ppm,95%
same,Postemergence herbicidal activity XANST,[14]; 31.3 ppm,90%
same,Postemergence herbicidal activity ALOMY,[23],85%
same,Postemergence herbicidal activity IPOHE,[15]; 31.3 ppm,70%
same,Postemergence herbicidal activity POLCO,[16]; 31.3 ppm,80%
same,Postemergence herbicidal activity SETFA,[17]; 31.3 ppm,90%
same,Postemergence herbicidal activity SORBI,[18]; 31.3 ppm,90%
same,Postemergence herbicidal activity STEME,[19]; 31.3 ppm,85%
same,Postemergence herbicidal activity ABUTH,[20]; 31.3 ppm,70%
same,Postemergence herbicidal activity CHEAL,[21]; 31.3 ppm,70%
same,Postemergence herbicidal activity AVEFA,wild oats (Avena fatua) [22]; 31.3 ppm,75%
same,Postemergence herbicidal activity VIOTR,viola (Viola tricolor); 31.3 ppm,80%
